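Results reflect a 48-hour exposure of cells in 96-well plates to compound at five concentrations. The concentration for full growth arrest is given as TGI.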
Assays:
Assay in all cases: growth of human tumour cells (NCI), 48 h
HCT-116 colon = system: HCT-116 colon
A549 NSCLC = system: A549 NSCLC
LOX IMVI melanoma = system: LOX IMVI melanoma
OVCAR-8 ovarian = system: OVCAR-8 ovarian
COLO 205 colon = system: COLO 205 colon
HS 578T breast = system: HS 578T breast
DU-145 prostate = system: DU-145 prostate
PC-3 prostate = system: PC-3 prostate
MDA-MB-435 = system: MDA-MB-435
NCI-H226 lung = system: NCI-H226 lung
SF-295 CNS = system: SF-295 CNS
SK-OV-3 ovarian = system: SK-OV-3 ovarian
UACC-257 melanoma = system: UACC-257 melanoma
OVCAR-5 ovarian = system: OVCAR-5 ovarian
RPMI-8226 leukemia = system: RPMI-8226 leukemia
RXF 393 renal = system: RXF 393 renal
SF-539 CNS = system: SF-539 CNS
OVCAR-4 ovarian = system: OVCAR-4 ovarian
EKVX NSCLC = system: EKVX NSCLC
UACC-62 melanoma = system: UACC-62 melanoma
NCI/ADR-RES ovarian = system: NCI/ADR-RES ovarian
A498 renal = system: A498 renal
CAKI-1 renal = system: CAKI-1 renal
U251 CNS = system: U251 CNS
HT29 colon = system: HT29 colon
ACHN renal = system: ACHN renal
HCC-2998 colon = system: HCC-2998 colon
HCT-15 colon = system: HCT-15 colon
HOP-62 NSCLC = system: HOP-62 NSCLC
SK-MEL-2 melanoma = system: SK-MEL-2 melanoma
MALME-3M melanoma = system: MALME-3M melanoma
SW-620 colon = system: SW-620 colon
UO-31 renal = system: UO-31 renal
CCRF-CEM leukemia = system: CCRF-CEM leukemia
SK-MEL-28 melanoma = system: SK-MEL-28 melanoma
786-0 renal = system: 786-0 renal
SF-268 CNS = system: SF-268 CNS
NCI-H23 lung = system: NCI-H23 lung
OVCAR-3 ovarian = system: OVCAR-3 ovarian
T-47D breast = system: T-47D breast
MDA-N = system: MDA-N
MDA-MB-231 breast = system: MDA-MB-231 breast
MCF7 breast = system: MCF7 breast
SNB-19 CNS = system: SNB-19 CNS
NCI-H460 lung = system: NCI-H460 lung
SN12C renal = system: SN12C renal
BT-549 breast = system: BT-549 breast
SNB-75 CNS = system: SNB-75 CNS
M14 melanoma = system: M14 melanoma
KM12 colon = system: KM12 colon

`O=[N+]([O-])/C(C(Cl)=C(Cl)Cl)=C(\Nc1cccc2ccccc12)n1nnc2ccccc21` was tested, and the TGI (HCT-116 colon) was greater than 100 µM, the TGI (A549 NSCLC) was greater than 100 µM and the TGI (LOX IMVI melanoma) was greater than 100 µM. It also gave a TGI (OVCAR-8 ovarian) greater than 100 µM, a TGI (COLO 205 colon) of 41 µM and a TGI (HS 578T breast) of 39.1 µM. For the same molecule, the TGI (DU-145 prostate) was greater than 100 µM, the TGI (PC-3 prostate) was greater than 100 µM and the TGI (MDA-MB-435) was greater than 100 µM. For the same molecule, the TGI (NCI-H226 lung) was greater than 100 µM, the TGI (SF-295 CNS) was greater than 100 µM and the TGI (SK-OV-3 ovarian) was greater than 100 µM. It also gave a TGI (UACC-257 melanoma) greater than 100 µM, a TGI (OVCAR-5 ovarian) greater than 100 µM and a TGI (RPMI-8226 leukemia) greater than 100 µM. For the same molecule, the TGI (RXF 393 renal) was 79.3 µM, the TGI (SF-539 CNS) was greater than 100 µM and the TGI (OVCAR-4 ovarian) was greater than 100 µM. It also gave a TGI (EKVX NSCLC) greater than 100 µM, a TGI (UACC-62 melanoma) greater than 100 µM and a TGI (NCI/ADR-RES ovarian) greater than 100 µM. For the same molecule, the TGI (A498 renal) was greater than 100 µM, the TGI (CAKI-1 renal) was greater than 100 µM and the TGI (U251 CNS) was greater than 100 µM. It also gave a TGI (HT29 colon) greater than 100 µM, a TGI (ACHN renal) greater than 100 µM and a TGI (HCC-2998 colon) greater than 100 µM. For the same molecule, the TGI (HCT-15 colon) was greater than 100 µM, the TGI (HOP-62 NSCLC) was greater than 100 µM and the TGI (SK-MEL-2 melanoma) was greater than 100 µM. For the same molecule, the TGI (MALME-3M melanoma) was greater than 100 µM, the TGI (SW-620 colon) was greater than 100 µM and the TGI (UO-31 renal) was greater than 100 µM. The TGI (CCRF-CEM leukemia) was greater than 100 µM, the TGI (SK-MEL-28 melanoma) was greater than 100 µM and the TGI (786-0 renal) was greater than 100 µM. The TGI (SF-268 CNS) was greater than 100 µM, the TGI (NCI-H23 lung) was greater than 100 µM and the TGI (OVCAR-3 ovarian) was greater than 100 µM. It also gave a TGI (T-47D breast) greater than 100 µM, a TGI (MDA-N) greater than 100 µM and a TGI (MDA-MB-231 breast) greater than 100 µM. The TGI (MCF7 breast) was greater than 100 µM, the TGI (SNB-19 CNS) was greater than 100 µM and the TGI (NCI-H460 lung) was greater than 100 µM. The TGI (SN12C renal) was greater than 100 µM, the TGI (BT-549 breast) was 98.8 µM and the TGI (SNB-75 CNS) was greater than 100 µM. The TGI (M14 melanoma) was greater than 100 µM and the TGI (KM12 colon) was greater than 100 µM.

Reference: PubChem BioAssay (NCI)
